Common to all, as to experiment: inhibition of tumour cell growth, NCI panel, 48 h
The subject of assay [1] is Hs-578T.
Assay [2] concerns HCC 2998.
The subject of assay [3] is MDA-N.
The subject of assay [4] is SN12C.
In assay [5] the test system is 786-0.
For assay [6], the system named is UO-31.
Assay [7] relates to SF-539.
Assay [8] concerns M14.
Assay [9] has as its system NCI-H23.
The test system of assay [10] is OVCAR-3.
The test system of assay [11] is OVCAR-4.
For assay [12], the system named is KM12.
For assay [13], the system named is A549.
Assay [14] relates to BT-549.
In assay [15] the test system is HOP-62.
In assay [16] the test system is MCF7.
The subject of assay [17] is LOX IMVI.
The test system of assay [18] is CAKI-1.
In assay [19] the test system is MDA-MB-231.
For assay [20], the system named is A498.

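Each compound was tested at five concentrations against cells in 96-well plates for 48 hours. GI50 = concentration required for 50% inhibition of growth.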 Activity calls are given as the source filed them. No stated cut-off is given here; in the data, active = GI50 up to about 1.1 µM and inactive = higher.

`CCOC(=O)c1c(-c2ccccc2)c(-c2ccccc2)cn1C`: the GI50 in assay [1] is 4.92 µM (inactive); in assay [2] it was > 10 µM (inactive); in assay [3] it was > 10 µM (inactive); in [4] it was > 10 µM (inactive); in assay [5] it was > 10 µM (inactive); in assay [6] it was > 10 µM (inactive). Besides, the GI50 in [7], in assay [8], in [9], in assay [10], in assay [11] and in [12] was > 10 µM (inactive) each time. Also, the GI50 in [13] and in assay [14] was > 10 µM (inactive) throughout.
Regarding `CN1CN(c2ccccc2)C2(CCN(CCCCCCF)CC2)C1=O`, the GI50 in assay [15] is 31.1 µM (inactive); in [3], 63.8 µM (inactive); in assay [4], 68.9 µM (inactive); in [5], > 100 µM (inactive); in assay [6], 26.7 µM (inactive); in assay [7] it was 28.8 µM (inactive). Further, the GI50 was 73.5 µM (inactive) in [8]; 94 µM (inactive) in assay [9]; > 100 µM (inactive) in assay [10]; > 100 µM (inactive) in [12]; 23.8 µM (inactive) in [16]; > 100 µM (inactive) in assay [17]. Moreover, the GI50 was 41.9 µM (inactive) in assay [18], 81.1 µM (inactive) in [19], 57.7 µM (inactive) in assay [13] and 3.41 µM (inactive) in [14].
For the molecule `CCOC(=O)NNC(=O)NCCCCNC(=O)NNC(=O)OCC`, the GI50 in [15], in assay [1], in assay [3], in assay [4], in assay [5] and in assay [6] was > 100 µM (inactive) throughout. The GI50 is > 100 µM (inactive) in assay [7]; > 100 µM (inactive) in [8]; > 100 µM (inactive) in [20]; > 100 µM (inactive) in assay [9]; > 100 µM (inactive) in [10]; 98.2 µM (inactive) in assay [12]. Moreover, the GI50 in [17], in [18], in assay [19], in assay [13] and in assay [14] was > 100 µM (inactive) each time.
Consider `COc1cccc(-n2nnc3c(N)nc(N)nc32)c1`, for which the GI50 in [15], in assay [3], in assay [4], in assay [5], in assay [7] and in assay [8] was > 100 µM (inactive) in each case. The GI50 in [20] is > 100 µM (inactive); in assay [9], 28.9 µM (inactive); in assay [10], > 100 µM (inactive); in assay [11], > 100 µM (inactive); in [12], > 100 µM (inactive); in assay [16], > 100 µM (inactive). The GI50 in [17], in assay [18], in [19], in assay [13] and in [14] was > 100 µM (inactive) throughout.
For the molecule `CCC1(O)CC(CCN(Cc2ccccc2)C(=O)OCc2ccccc2)C(OCc2ccccc2)C1O` (stereo not given), the GI50 in assay [15] is 14.5 µM (inactive); in assay [2], 14 µM (inactive); in assay [3], 26.8 µM (inactive); in assay [4] it was 24.4 µM (inactive); in assay [5], 17.2 µM (inactive); in [6], 16.2 µM (inactive). The GI50 was 15.5 µM (inactive) in assay [8]; 14 µM (inactive) in [9]; 13 µM (inactive) in assay [10]; 7.66 µM (inactive) in [11]; 12.7 µM (inactive) in [12]; 6.38 µM (inactive) in assay [16]. Moreover, the GI50 in assay [17] is 21.9 µM (inactive); in assay [18], 25.3 µM (inactive); in assay [19], 27.2 µM (inactive); in [13], 9.93 µM (inactive); in assay [14], 13 µM (inactive).
For `Nc1nc(Cl)c2ncn(Cc3ccc(CCl)cc3)c2n1`, the GI50 in assay [15] is 6.85 µM (inactive); in [1], 29.2 µM (inactive); in [2], 0.497 µM (active); in [4] it was 12.2 µM (inactive); in [5] it was 5.31 µM (inactive); in assay [6], 11.9 µM (inactive). Further, the GI50 in assay [7] is 3.13 µM (inactive); in [8] it was 14 µM (inactive); in [20], 22 µM (inactive); in assay [9] it was 12 µM (inactive); in assay [10] it was 2.16 µM (inactive); in assay [11], 15.6 µM (inactive). For the same molecule, the GI50 in assay [12] was 8.07 µM (inactive); in assay [16] it was 2.81 µM (inactive); in assay [17], 5.41 µM (inactive); in assay [18], 2.49 µM (inactive); in assay [19], 13.1 µM (inactive); in assay [13], 15.7 µM (inactive). Also, the GI50 in assay [14] is 6.84 µM (inactive).
With `O=c1n(-c2ccccc2)c(=O)n2n1C1C=CC2CCCCCC1`, the GI50 in [15] is > 100 µM (inactive); in [1], 36.1 µM (inactive); in assay [2], > 100 µM (inactive); in assay [4], > 100 µM (inactive); in assay [5], > 100 µM (inactive); in [6] it was > 100 µM (inactive). For the same molecule, the GI50 is > 100 µM (inactive) in assay [7]; > 100 µM (inactive) in [8]; > 100 µM (inactive) in assay [9]; 4.99 µM (inactive) in assay [10]; > 100 µM (inactive) in assay [11]; > 100 µM (inactive) in assay [12]. Moreover, the GI50 is > 100 µM (inactive) in [16]; > 100 µM (inactive) in assay [17]; > 100 µM (inactive) in assay [18]; > 100 µM (inactive) in assay [19]; > 100 µM (inactive) in assay [13]; 97.3 µM (inactive) in assay [14].
On to `C1CC[C@H]2SSC3CCCC[C@H]3SSC2C1` (stereo not given in full), for which the GI50 in [15], in assay [2], in [3], in [4], in [5] and in assay [6] was > 100 µM (inactive) in each case. In addition, the GI50 in assay [7], in assay [8], in assay [9], in assay [10], in [11] and in assay [12] was > 100 µM (inactive) in each case. For the same molecule, the GI50 in assay [16], in [17], in [19], in [13] and in [14] was > 100 µM (inactive) each time.
As to `CCN(CC)c1ccc(C2SCC(=O)N2c2ccc(NC(=O)c3ccc(N4C(=O)CSC4c4ccc(N(CC)CC)cc4)cc3)cc2)cc1` (stereo not given), the GI50 is 89.7 µM (inactive) in assay [15]; > 100 µM (inactive) in [1]; > 100 µM (inactive) in assay [2]; > 100 µM (inactive) in assay [4]; > 100 µM (inactive) in assay [5]; > 100 µM (inactive) in [6]. Further, the GI50 was > 100 µM (inactive) in [7]; > 100 µM (inactive) in [8]; > 100 µM (inactive) in [9]; 71.4 µM (inactive) in assay [10]; 70.8 µM (inactive) in assay [11]; 96.8 µM (inactive) in [12]. The GI50 in assay [16] is 79.4 µM (inactive); in assay [17], 67 µM (inactive); in [18], > 100 µM (inactive); in assay [19] it was > 100 µM (inactive); in [13], > 100 µM (inactive); in assay [14] it was > 100 µM (inactive).
As for `Cc1ccc(OCC2OC(C#N)C(Oc3ccc(C)cc3)C2Oc2ccc(C)cc2)cc1` (stereo not given), the GI50 in assay [15], in assay [1], in assay [2], in [4], in assay [5] and in [6] was > 100 µM (inactive) in each case. For the same molecule, the GI50 in [7], in assay [8], in assay [20], in [9], in [10] and in assay [11] was > 100 µM (inactive) each time. The GI50 in assay [12], in assay [16], in assay [18], in [19], in assay [13] and in [14] was > 100 µM (inactive) throughout.
Turning to `O=S(=O)(O)CCSSCCS(=O)(=O)O`, the GI50 in assay [15], in assay [2], in assay [3], in assay [4], in assay [5] and in [6] was > 1000 µM (inactive) in each case. Also, the GI50 in assay [7], in [8], in assay [20], in assay [9], in assay [10] and in [11] was > 1000 µM (inactive) throughout. In addition, the GI50 in assay [12], in [16], in assay [17], in [18], in assay [19] and in assay [13] was > 1000 µM (inactive) throughout. Also, the GI50 in assay [14] is > 1000 µM (inactive).

Values taken from ChEMBL document CHEMBL1201862, “PubChem BioAssay data set” (2004).
